In article PMC8247886, “Getting a Grip on the Undrugged: Targeting β‐Catenin with Fragment‐Based Methods” (Chemmedchem, 2021):

Key:
β-catenin141–305 [1] = target: T1, β-catenin141–305 (Homo sapiens, UniProt P35222); assay: STD-NMR fragment screening in mixtures; type: binding; settings: fragment mixture, 250 µM each, 10 µM protein
T1 construct: Amino acids 141-305 of uniprot ID: P35222; GST (cleaved yes); made in house; host or cells: E. coli BL21 (DE3)
T1 sequence (P35222 141-305): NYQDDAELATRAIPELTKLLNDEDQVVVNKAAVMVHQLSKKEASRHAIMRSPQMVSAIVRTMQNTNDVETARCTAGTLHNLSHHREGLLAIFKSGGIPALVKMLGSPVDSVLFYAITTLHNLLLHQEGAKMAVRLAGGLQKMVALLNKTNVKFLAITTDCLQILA
From the text: labelling the protein was expressed in Overnight Express™ Autoinduction NMR Medium - ¹⁵N - Novagen (Merck Millipore) according to the technical description and purified as described for the unlabeled protein. The protein of β-catenin135-663 (Amino acids 135-663 of uniprot ID: P35222) and the β-catenin binding domain of human BCL9 (Amino acids 347–392 of uniprot ID: O00512, containing an additional n-terminal glycine) was purchased (Proteros Biostructures GmbH).
Ligand based 1D 1H experiments were carried out on a Bruker Avance II 600 MHz spectrometer with a 5 mm cryo-QCI probe and z-gradients. […] The on and off resonance spectra were recorded in an interleaved fashion to minimize subtraction artifacts. […] After acquisition, the difference spectrum was calculated by subtracting the two individual spectra. […] These were readily assigned by comparing the signals with the respective pre-recorded reference spectra of the individual compounds present in the mixture. […]
For confirmation of hits obtained from STD-NMR by 2D 15N TROSY NMR4 a Bruker Avance III 600 MHz instrument with a 5 mm cryo-TCI probe and z-gradient was used. […] Spectra were recorded with 48 transients and 64 data points in the indirect dimension. […]
1D, GEM by STD and WaterLOGSY experiments were recorded at 298 K on an Avance III 700MHz spectrometer equipped with a cryogenically cooled 5mm TCI probe. […]

[2] = Solubility in NMR buffer at pH 7.5 by quantitative NMR (maleic acid external standard); type: physicochemical; settings: NMR buffer (Tris/NaCl with 2% DMSO-d6), aqueous buffer, kinetic from dmso stock; NMR buffer pH 7.5; intended concentration 500 or 2000 μM; read-out: Solub. pH 7.5
Protocol: buffer (Tris 25 mM, pH 7.5, NaCl 150 mM) containing 2% DMSO-d6. […]
Solubility of compounds was determined in NMR buffer at pH 7.5 (see above) by integrating the
signal of 250 µM maleic acid as an external standard relative to the integrals of the ligands. If the
intended concentrations of 500 µM respective 2000 µM were reached the value is reported as >
500 µM or > 2000 µM. […]

β-catenin141–305 [3] = target: T1, β-catenin141–305; assay: 2D 15N NMR (TROSY/HSQC/HMQC) detected binding and Kd titration
Protocol: The construct for expression of β-catenin141-305 (Amino acids 141-305 of uniprot ID: P35222) is based on the previously reported R4 construct1. The plasmid was used to transform E. coli, strain BL21 (DE3) cells (Invitrogen). For protein expression, an overnight culture in LB-medium supplemented ampicillin (100 µg/mL) at 37 °C was prepared and diluted the next day with fresh 2xYT-medium. At OD600 of 0.8 the culture was cooled down to 18 °C and after induction with 0.5 mM IPTG incubated for 20 h. Cell pellets obtained by centrifugation at 5000 rpm were stored at - 20 °C. Cells were solubilized in buffer A (2X Dulbecco’s PBS; 500 mM NaCl; 10 % Glycerol; 0.5 mM TCEP; cOmplete™ Protease Inhibitor Cocktail; pH 7.4) and disrupted by sonication (Sonopuls, Bandelin) on ice. After 30 min the sonicated lysate was clarified by centrifugation (50 min, 13500 rpm, 4 °C). The supernatant was mixed with 20 mL Glutathione Sepharose® 4B resin (GE Healthcare) slurry, washed in lysis buffer, and steered for 3 hours on ice. The beads were spun down, loaded into a XK16 column cartridge and washed with lysis buffer until baseline. The protein was eluted with buffer B (2X Dulbecco’s PBS; 500 mM NaCl; 10 % Glycerol; 0.5 mM TCEP;; pH 7.4) + 25 mM L-Glutathione reduced. After cleavage with 2000 units Human Alpha Thrombin (Enzyme Research Laboratories) at room temperature overnight, the protein was collected in the flow-through fraction of a second GST run (GSTrap HP 5 mL column; GE Healthcare) using buffer B. The flow-through was concentrated by centrifugation using an Amicon© Ultra 15 mL Centrifugal Filter (Merck Millipore) and loaded onto a HiLoad Superdex S75 column (GE Healthcare) equilibrated with 50 mM Tris; 200 mM NaCl; 3 mM DTT; pH 8.
Fractions were analyzed by SDS-PAGE and fractions containing the desired protein were pooled and concentrated with an Amicon© Ultra 15 mL Centrifugal Filter (Merck Millipore). […]
For confirmation of hits obtained from STD-NMR by 2D 15N TROSY NMR4 a Bruker Avance III 600 MHz instrument with a 5 mm cryo-TCI probe and z-gradient was used. The experimental set up (automated sample preparation and transfer into the magnet by a Tecan Freedom Evo pipetting robot and a Bruker Sample Rail system, respectively) was identical. Each sample contained 25 uM 15N labeled β-catenin141-305 25 mM sodium phosphate, 150 mM sodium chloride, 100 mM sodium nitrate, 0.5mM TCEP pH 6.8 in H2O at 25 °C and 8% (v/v) D2O. The protein was incubated with 500 uM fragment in a 2.5 mm NMR tube at 25 °C and a d6DMSO concentration of 1%. Spectra were recorded with 48 transients and 64 data points in the indirect dimension. Manual comparison of the spectrum in the presence of the to be tested fragment with the DMSO reference spectrum reveal either line broadening or chemical shift perturbation of cross peaks. Both effects are indicative for compound binding. All processing and analysis was done with the Topspin 2.1 software (Bruker BioSpin). Further spectral comparisons were performed with the FELIX software package (Felix NMR Inc.) to combine manual with automated analysis5. […]
700MHz spectrometer equipped with a cryogenically cooled 5mm TCI probe. […]
The
WaterLOGSY pulse sequence was used as described before7. Selective water inversion was achieved with a double excitation sculpting element employing water selective Gaussian refocusing pulses (inversion bandwidth of 0.5 ppm, pulse length of 7.5 ms). The number of scans was set to 2048. Sample concentrations were 0.5 mM ligand and 0.25–10 µM β-catenin135-663 in […]

β-catenin = target: β-catenin; parameters: method as in PMID 17052462; settings: previously determined binding affinity; read-out: ITC Kd; cited from earlier work
β-catenin141–305 [4] = target: T1, β-catenin141–305; assay: Microscale Thermophoresis (MST) screening and Kd determination; type: binding; settings: assay validation; PBS pH 6.8, 100 mM NaNO3, 0.5 mM TCEP, 0.05% Tween-20, 25 °C
Protocol: buffer (Tris 25 mM, pH 7.5, NaCl 150 mM) containing 2% DMSO-d6. A stock solution of β-catenin135-663 (12.5 µM) was dialyzed before into Tris 25 mM pH 7.6 NaCl 150 mM and centrifuged at 4° C at 15000 rpm for 20 minutes. Intensity ratios Ilogsy/I1D are derived from scaling of the 1D intensity to the corresponding LOGSY intensity. STD GEMs were acquired with 1.5 µM […]
2.0; and 3.0 seconds for the saturation time build up curves to determine the initial rate constants2.
STD experiments were acquired with on and off resonance saturation at +0.1ppm and -40ppm respectively with 1048 scans each.
Solubility of compounds was determined in NMR buffer at pH 7.5 (see above) by integrating the signal of 250 µM maleic acid as an external standard relative to the integrals of the ligands. If the intended concentrations of 500 µM respective 2000 µM were reached the value is reported as > 500 µM or > 2000 µM. Compound 3 only reached a concentration of 1000 µM according to the QNMR experiment even though 2000 µM was intended, it’s solubility is therefore reported as […]
Microscale Thermophoresis.
Fluorescence labeling of β-catenin141-305 with the NT647 dye was achieved using the Monolith NT.115 Protein Labeling Kit RED-NHS according to the manufacturer’s protocol (NanoTemper Technologies, Munich, Germany). The BCL9 peptide was used as positive control for assay development to achieve a reliably detectable change in the thermophoretic mobility ( ΔFnorm). […]
Final assay conditions were 50 nM NT647 labeled β-catenin141-305 in PBS pH 6.8 supplemented with 100 mM NaNO3, 0.5 mM TCEP and 0.05% Tween-20 at 25° C. Fragment screening detected […]
by MST was carried out as previously described8,9. […] Manual inspection of all MST traces was used to reject non-standard traces stemming from protein aggregation, bleaching, or fluorescence quenching. ΔFnorm values (ΔFnorm=Fhot/Fcold) were calculated and the mean values of the duplicates were compared to the mean values of the DMSO negative control. […] Protein integrity over the entire FBS was monitored by the BCL9 peptide positive control. […]

β-catenin141–305 [5] = target: T1, β-catenin141–305; assay: Surface Plasmon Resonance (SPR) Kd determination; type: binding; settings: positive control, n=3; 1:1 binding model
Protocol: Surface Plasmon Resonance (SPR)
A Biacore T200 instrument was used for SPR analysis, β-catenin141-305 was pre-diluted to a concentration of 0.1 mg/mL with 10 mM sodium acetate buffer, pH 5.0 and immobilized at a density of 6000 –7000 response units on flow cell 2 of a Biacore CM5 chip. Carbonic anhydraseII served as a reference protein on flow cell 3 and flow cell 1 was kept blank and used as the reference surface. A mixture of 20 mM Tris, pH 7.5, 150 mM NaCl, 0.5 mM TCEP, 0.005% Tween20, 2 % dimethyl sulfoxide was used as assay buffer. After pre -equilibration of the chip with 10 blank injections, the Kd measurements were performed by injecting a concentration series of analyte (9 concentrations, 1:1 dilutions). BCL9 347-392 served as a positive control. K d values were determined by global fitting of the steady-state response for each of the 9 concentrations to a 1:1 interaction model using the Biacore T200 evaluation software. Each compound was injected three times and […]
average Kd values were calculated from the repeats. The reported data are the mean values of three independent experiments ± standard deviations. […]
Glutamax Supplement (Thermo Fisher Scientific, 35050061) with 10% FCS (GE Healthcare, SH30071.03). Transfections were performed with Lipofectamine LTX Reagent (Thermo Fisher, 15338100) according the manufacturer’s instructions.

| Compound | STD-NMR binding (β-catenin141–305 [1]) | solubility [2] [µM] | chemical shift perturbations (CSPs) in 2D 15N NMR (β-catenin141–305 [3]; 500 μM compound) | Kd (β-catenin141–305 [3]; 15N NMR titration, single titration, mean of curves of selected cross peaks ± SD, read-out: HSQC Kd) [µM] | Kd (β-catenin) [µM] | Kd (β-catenin141–305 [4]) [µM] | Kd (β-catenin141–305 [5]) [µM] |
| --- | --- | --- | --- | --- | --- | --- | --- |
| O=C1NCCNc2c1cccc2[N+](=O)[O-] [Compound 1] | unambiguously identified as binders | > 500 | minor chemical shift perturbation | > 10000 |  |  |  |
| BCL9^347−392: β-catenin binding domain of human BCL9 (amino acids 347–392, additional N-terminal glycine), positive control (NPDGLSQEQLEHRERSLQTLRDIQRMLFPDEKEFTGAQSGGPQQNP; additional N-terminal glycine; UniProt O00512 347-392, looked up, fragment) [reference compound] |  |  |  |  | 0.54 | 0.36 | 0.225 |
